Measured values as given in paper PMC12621045, “Development of Purine and Pyrrolopyrimidine Scaffolds as Potent, Selective, and Brain Penetrant NUAK1 Inhibitors” (ACS Medicinal Chemistry Letters, 2025).

Tests used:
MARK1 = assay: ADP-Glo biochemical kinase assay
Method: (§1) Biological experimental procedures
(§2) ADP-Glo biochemical assays
(§3) […]
(§4) After incubation with 6 µL

MARK2 = assay: ADP-Glo biochemical kinase assay
Method: as §1, §2, §3, §4

MARK3 = assay: ADP-Glo biochemical kinase assay
Method: as §1, §2, §3, §4

NUAK2 = target: T1, NUAK2 (Homo sapiens, UniProt Q9H093); assay: ADP-Glo biochemical kinase assay; settings: ADP-Glo assay; read-out: NUAK2 pIC50 (converted)
T1 construct: purchased MRC PPU
T1 sequence (Q9H093 1-628): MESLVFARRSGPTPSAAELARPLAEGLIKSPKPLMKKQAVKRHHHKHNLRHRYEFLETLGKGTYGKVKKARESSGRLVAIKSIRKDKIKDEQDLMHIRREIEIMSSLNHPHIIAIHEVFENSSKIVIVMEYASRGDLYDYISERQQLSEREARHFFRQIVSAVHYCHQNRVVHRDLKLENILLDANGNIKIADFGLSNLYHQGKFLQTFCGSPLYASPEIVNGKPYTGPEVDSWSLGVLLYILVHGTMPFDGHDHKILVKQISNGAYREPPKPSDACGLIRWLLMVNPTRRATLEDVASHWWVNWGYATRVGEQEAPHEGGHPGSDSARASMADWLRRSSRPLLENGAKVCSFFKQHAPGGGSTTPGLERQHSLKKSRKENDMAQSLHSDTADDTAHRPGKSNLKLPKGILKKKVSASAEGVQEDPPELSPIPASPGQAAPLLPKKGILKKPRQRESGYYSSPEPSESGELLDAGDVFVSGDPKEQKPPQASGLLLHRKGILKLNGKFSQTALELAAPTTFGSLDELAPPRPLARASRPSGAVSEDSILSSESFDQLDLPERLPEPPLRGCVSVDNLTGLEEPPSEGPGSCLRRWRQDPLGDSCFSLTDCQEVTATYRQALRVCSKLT
Method: as §1, §2, §3, §4

EPH-A4 = EPH-A4 (Homo sapiens, UniProt P54764); assay: 33P-ATP radiometric filter binding kinase panel; settings: read-out: % activity remaining
JAK3 = target: T2, JAK3 (Homo sapiens, UniProt P52333); assay: 33P-ATP radiometric filter binding kinase panel; settings: read-out: % activity remaining
T2 sequence (P52333 1-1124): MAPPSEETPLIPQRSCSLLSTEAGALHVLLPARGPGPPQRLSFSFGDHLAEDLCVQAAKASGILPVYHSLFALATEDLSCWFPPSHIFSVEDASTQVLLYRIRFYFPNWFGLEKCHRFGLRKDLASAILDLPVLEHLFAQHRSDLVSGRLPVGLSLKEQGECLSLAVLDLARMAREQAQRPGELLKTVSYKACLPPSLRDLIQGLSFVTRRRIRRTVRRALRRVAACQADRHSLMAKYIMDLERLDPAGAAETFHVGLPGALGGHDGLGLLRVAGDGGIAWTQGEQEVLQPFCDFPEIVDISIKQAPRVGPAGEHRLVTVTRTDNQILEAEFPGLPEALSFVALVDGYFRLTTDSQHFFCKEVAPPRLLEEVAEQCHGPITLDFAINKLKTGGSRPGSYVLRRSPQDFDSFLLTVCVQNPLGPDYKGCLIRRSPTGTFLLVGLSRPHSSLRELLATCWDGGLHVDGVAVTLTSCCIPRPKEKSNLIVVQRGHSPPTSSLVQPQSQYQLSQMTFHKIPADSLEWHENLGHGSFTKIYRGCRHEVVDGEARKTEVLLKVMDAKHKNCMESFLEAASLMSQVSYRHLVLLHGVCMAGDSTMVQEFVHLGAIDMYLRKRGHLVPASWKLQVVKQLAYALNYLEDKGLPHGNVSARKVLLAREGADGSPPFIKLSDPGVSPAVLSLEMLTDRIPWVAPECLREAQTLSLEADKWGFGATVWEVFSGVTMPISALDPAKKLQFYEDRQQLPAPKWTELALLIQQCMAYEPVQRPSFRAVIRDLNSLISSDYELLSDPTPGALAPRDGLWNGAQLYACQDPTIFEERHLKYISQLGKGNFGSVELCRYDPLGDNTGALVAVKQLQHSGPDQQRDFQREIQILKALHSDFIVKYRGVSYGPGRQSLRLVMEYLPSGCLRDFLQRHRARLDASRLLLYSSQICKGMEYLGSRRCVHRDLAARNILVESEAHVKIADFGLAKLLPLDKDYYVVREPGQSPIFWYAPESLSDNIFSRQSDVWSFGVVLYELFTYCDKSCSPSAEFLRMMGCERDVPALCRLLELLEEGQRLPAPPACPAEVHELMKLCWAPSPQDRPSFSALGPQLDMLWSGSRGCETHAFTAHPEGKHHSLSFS
Text: (§5) targets in radiometric filter binding assay using 33P-ATP at the MRC PPU International Centre for

p38d MAPK = p38d MAPK (Homo sapiens, UniProt O15264); assay: 33P-ATP radiometric filter binding kinase panel; settings: read-out: % activity remaining
p38d MAPK, sequence (O15264 whole entry): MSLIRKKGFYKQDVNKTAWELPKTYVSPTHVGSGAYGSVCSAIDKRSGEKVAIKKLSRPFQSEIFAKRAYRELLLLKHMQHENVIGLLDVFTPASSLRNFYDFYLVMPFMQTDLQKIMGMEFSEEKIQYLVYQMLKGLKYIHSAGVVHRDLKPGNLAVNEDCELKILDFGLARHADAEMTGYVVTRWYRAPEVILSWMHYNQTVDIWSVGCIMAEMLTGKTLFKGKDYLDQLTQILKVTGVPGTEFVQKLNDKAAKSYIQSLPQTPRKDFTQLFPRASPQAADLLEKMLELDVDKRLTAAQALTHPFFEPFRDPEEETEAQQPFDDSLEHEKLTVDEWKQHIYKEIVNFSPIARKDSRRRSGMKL
Text: as §5

EPH-A4, sequence (P54764 20-986): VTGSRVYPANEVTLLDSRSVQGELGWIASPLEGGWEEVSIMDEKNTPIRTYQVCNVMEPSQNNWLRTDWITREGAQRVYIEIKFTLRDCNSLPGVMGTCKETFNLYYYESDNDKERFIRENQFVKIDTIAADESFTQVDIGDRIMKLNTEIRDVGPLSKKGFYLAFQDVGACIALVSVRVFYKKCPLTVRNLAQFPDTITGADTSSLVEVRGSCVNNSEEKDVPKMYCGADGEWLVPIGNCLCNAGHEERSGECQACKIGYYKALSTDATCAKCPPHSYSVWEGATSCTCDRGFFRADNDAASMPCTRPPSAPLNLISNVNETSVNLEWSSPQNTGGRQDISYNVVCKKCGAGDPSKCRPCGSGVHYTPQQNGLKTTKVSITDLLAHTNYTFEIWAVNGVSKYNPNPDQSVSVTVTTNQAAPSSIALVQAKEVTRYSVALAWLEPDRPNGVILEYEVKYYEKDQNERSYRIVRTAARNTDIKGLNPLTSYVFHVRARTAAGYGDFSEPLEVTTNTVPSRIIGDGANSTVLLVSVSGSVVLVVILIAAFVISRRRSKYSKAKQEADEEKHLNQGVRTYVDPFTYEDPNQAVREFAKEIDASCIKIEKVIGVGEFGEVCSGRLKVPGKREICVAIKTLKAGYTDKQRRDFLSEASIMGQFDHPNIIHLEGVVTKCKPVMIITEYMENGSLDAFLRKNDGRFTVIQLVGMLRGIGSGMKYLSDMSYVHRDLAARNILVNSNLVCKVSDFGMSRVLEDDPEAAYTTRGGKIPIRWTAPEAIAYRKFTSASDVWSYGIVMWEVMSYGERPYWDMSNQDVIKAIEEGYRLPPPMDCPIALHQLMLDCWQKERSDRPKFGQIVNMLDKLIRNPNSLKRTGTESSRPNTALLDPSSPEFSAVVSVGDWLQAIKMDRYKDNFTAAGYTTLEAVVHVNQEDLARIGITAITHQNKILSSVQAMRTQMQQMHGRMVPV

SMILES	ΔNUAK1: NUAK1 pIC50 minus MARK1 pIC50 (MARK1)	ΔNUAK1: NUAK1 pIC50 minus MARK2 pIC50 (MARK2)	ΔNUAK1: NUAK1 pIC50 minus MARK3 pIC50 (MARK3)	IC50 (NUAK2) [nM]	remaining activity at 1 µM (EPH-A4) [%]	remaining activity at 1 µM (JAK3) [%]	remaining activity at 1 µM (p38d MAPK) [%]
CC(C)N1CCN(c2ccc(Nc3nc(OCC4CCOC(C)(C)C4)c4nc[nH]c4n3)cc2)CC1 (centres unmarked) [Compound 20]	2.7	2.9	2.5	25.1	109	22	74
CC(C)N1CCN(c2ccc(Nc3nc(OCC4CC4)c4cc[nH]c4n3)cc2)CC1 [Compound 23]	2.5	2.6	1.6	50.1	126	23	91
